This experiment deals with MetAP-2 (Homo sapiens, UniProt P50579). The experiment in a line: MetAP-2 activity measurement (coupled enzymatic reactions, substrate Met-Arg-Ser, photometric at 450 nm). Type of experiment: biochemical. Particulars: Inhibition of MetAP-2; read-out: IC50 enzyme. The protocol:
The MetAP-2 activity is determined by coupling enzymatic reactions. The tripeptide Met-Arg-Ser (MAS) is employed as substrate. The methionine liberated is firstly converted into Metox and H2O2 by L-aminooxidase (AAO). In the second step, the peroxidase (POD) with the aid of the H2O2 catalyses the oxidation of the leukodye dianisidine to dianisidineox, the increase of which is detected photometrically at 450 nm.
MetAP-2 activity can be recorded continuously as kinetics. The reaction scheme illustrates that one mol of dianisidineox is formed per mol of methionene. The MetAP-2 enzyme activity can therefore be calculated directly as Δ absorption per time unit. Qualification of the MetAP-2 activity (mol of Met/time unit) is possible with the aid of the dianisidineox extinction coefficient. The change in extinction per time unit is depicted graphically and a slope calculation is carried out in the visually linear region of the reaction.
Sequence of MetAP-2 (P50579 whole entry, species assumed): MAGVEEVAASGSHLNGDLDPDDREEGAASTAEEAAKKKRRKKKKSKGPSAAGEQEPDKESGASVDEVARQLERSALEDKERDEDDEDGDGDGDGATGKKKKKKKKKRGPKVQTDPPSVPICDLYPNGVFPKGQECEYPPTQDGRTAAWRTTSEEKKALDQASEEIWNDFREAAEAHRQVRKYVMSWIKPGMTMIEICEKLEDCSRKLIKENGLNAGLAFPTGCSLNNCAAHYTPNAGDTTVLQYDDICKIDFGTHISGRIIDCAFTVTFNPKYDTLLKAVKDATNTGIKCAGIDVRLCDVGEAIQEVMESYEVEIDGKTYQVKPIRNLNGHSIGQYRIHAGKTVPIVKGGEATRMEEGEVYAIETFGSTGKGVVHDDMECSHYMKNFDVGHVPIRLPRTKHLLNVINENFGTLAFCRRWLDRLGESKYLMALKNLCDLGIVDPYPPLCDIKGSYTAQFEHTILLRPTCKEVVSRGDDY
The term IC50 denotes the point on the concentration scale where inhibition reaches its midpoint. As for `c1ccc2c(OC[C@H]3CCCN3c3ccnc4nncn34)cccc2c1` [Compound A4, 5-[(R)-2-(naphthalen-1-yloxymethyl)pyrrolidin-1-yl]-[1,2,4]-triazolo[4,3-a]pyrimidine], the IC50 is > 10000 nM. On to `c1ccc2c(OC[C@H]3CCCN3c3ccnc4ncnn34)ccnc2c1` [Compound A8], for which the half-maximal inhibitory concentration (IC50) lay within 10 to 1000 nM. Consider `FC(F)(F)Oc1ccc2nccc(OC[C@H]3CCCN3c3ccnc4ncnn34)c2c1` [Compound A9], for which the IC50 was in the range of 10 to 1000 nM.

Turning to `FC(F)(F)c1ccc2nccc(OC[C@H]3CCCN3c3ccnc4ncnn34)c2c1` [Compound A10], the 50% inhibitory concentration (IC50) lay within 10 to 1000 nM.

Take `O=C(NCc1ccc(F)cc1)c1cc(OC[C@H]2CCCN2c2ccnc3ncnn23)c2ccccc2n1` [Compound A11]: the concentration for half-maximal inhibition (IC50) lay in the range of 10 to 1000 nM.

Turning to `O=C(NCCc1ccc(F)cc1)c1cc(OC[C@H]2CCCN2c2ccnc3ncnn23)c2ccccc2n1` [Compound A12], the IC50 lay in the range of 10 to 1000 nM.

Regarding `CCNC(=O)c1cc(OC[C@H]2CCCN2c2ccnc3ncnn23)c2ccccc2n1` [Compound A13], the IC50 was in the range of 10 to 1000 nM. In the case of `c1ccc2c(OC[C@H]3CCCN3c3ccnc4ncnn34)nccc2c1` [Compound A16], the IC50 fell in the range of 10 to 1000 nM. To `c1cc(OC[C@H]2CCCN2c2ccnc3ncnn23)c2ccncc2c1` [Compound A17] belongs 10 to 1000 nM; to `O=C(NCCCN1CCCC1=O)c1cc(OC[C@H]2CCCN2c2ccnc3ncnn23)c2ccccc2n1` [Compound A18], 10 to 1000 nM. Regarding `CCOC(=O)c1n[nH]c(C)c1OC[C@H]1CCCN1c1ccnc2ncnn12` [Compound A19], the concentration for half-maximal inhibition (IC50) lay within 10 to 1000 nM. With `c1ccc2c(OC[C@H]3CCCN3c3ccnc4ncnn34)ccc(CNCCN3CCOCC3)c2c1` [Compound A20], the IC50 was 10 to 1000 nM. Take `c1ccc2c(OC[C@H]3CCCN3c3ccnc4ncnn34)ccc(CNCCCN3CCOCC3)c2c1` [Compound A21]: the IC50 fell in the range of 10 to 1000 nM. Turning to `O=C(NCc1ccccc1)c1cc(OC[C@H]2CCCN2c2ccnc3ncnn23)c2ccccc2n1` [Compound A22], the IC50 was in the range of 10 to 1000 nM.

For `O=C(NCCc1c[nH]c2ccccc12)c1cc(OC[C@H]2CCCN2c2ccnc3ncnn23)c2ccccc2n1` [Compound A23], the IC50 was 10 to 1000 nM.

As for `NS(=O)(=O)c1ccc(CCNC(=O)c2cc(OC[C@H]3CCCN3c3ccnc4ncnn34)c3ccccc3n2)cc1` [Compound A24], the IC50 lay within 10 to 1000 nM. Then `CC(C)(C)OC(=O)N1CCc2cccc(OC[C@H]3CCCN3c3ccnc4ncnn34)c2C1` [Compound A25], with 1000 to 10000 nM; and `O=C(OC[C@H]1CCCN1c1ccnc2ncnn12)c1ccc(F)cc1` [Compound A26], with 10 to 1000 nM; and `c1cc2c(c(OC[C@H]3CCCN3c3ccnc4ncnn34)c1)CNCC2` [Compound A27], with 10 to 1000 nM. With `O=C(NCCc1ccc(Cl)cc1)c1cc(OC[C@H]2CCCN2c2ccnc3ncnn23)c2ccccc2n1` [Compound A28], the half-maximal inhibitory concentration (IC50) lay in the range of 1000 to 10000 nM. As to `CC(C)(C)OC(=O)N[C@H](CC(N)=O)C(=O)N1CCc2cccc(OC[C@H]3CCCN3c3ccnc4ncnn34)c2C1` [Compound A29], the IC50 fell in the range of 10 to 1000 nM.

With `CC(C)(C)OC(=O)NCC(=O)N1CCc2cccc(OC[C@H]3CCCN3c3ccnc4ncnn34)c2C1` [Compound A31], the concentration for half-maximal inhibition (IC50) is 10 to 1000 nM. To `CC(=O)N[C@@H](CC(N)=O)C(=O)N1CCc2cccc(OC[C@H]3CCCN3c3ccnc4ncnn34)c2C1` [Compound A32] belongs 10 to 1000 nM; to `CC(=O)N1CCc2cccc(OC[C@H]3CCCN3c3ccnc4ncnn34)c2C1` [Compound A33], 10 to 1000 nM; to `O=C(c1ccno1)N1CCc2cccc(OC[C@H]3CCCN3c3ccnc4ncnn34)c2C1` [Compound A34], 10 to 1000 nM.

Regarding `CC(C)(C)OC(=O)NCCCCN1CCc2cccc(OC[C@H]3CCCN3c3ccnc4ncnn34)c2C1` [Compound A35], the IC50 is 10 to 1000 nM.

With `NC(=O)C[C@@H](N)C(=O)N1CCc2cccc(OC[C@H]3CCCN3c3ccnc4ncnn34)c2C1` [Compound A36], the 50% inhibitory concentration (IC50) fell in the range of 10 to 1000 nM.

On to `NCC(=O)N1CCc2cccc(OC[C@H]3CCCN3c3ccnc4ncnn34)c2C1` [Compound A37], for which the IC50 is 10 to 1000 nM. To `N#CCCCCN1CCc2cccc(OC[C@H]3CCCN3c3ccnc4ncnn34)c2C1` [Compound A38] belongs 10 to 1000 nM. To `CC(C)(C)OC(=O)N[C@H](CC#N)C(=O)N1CCc2cccc(OC[C@H]3CCCN3c3ccnc4ncnn34)c2C1` [Compound A39] belongs 10 to 1000 nM.

As to `N#CCCCCOC(=O)N1CCc2cccc(OC[C@H]3CCCN3c3ccnc4ncnn34)c2C1` [Compound A40], the 50% inhibitory concentration (IC50) is 10 to 1000 nM.

Regarding `NCCCCN1CCc2cccc(OC[C@H]3CCCN3c3ccnc4ncnn34)c2C1` [Compound A41], the half-inhibitory concentration (IC50) lay within 10 to 1000 nM. `NCCCCOC(=O)N1CCc2cccc(OC[C@H]3CCCN3c3ccnc4ncnn34)c2C1` [Compound A42]: the IC50 fell in the range of 10 to 1000 nM. In the case of `COc1cccc(C(=O)OC[C@H]2CCCN2c2ccnc3ncnn23)c1` [Compound A43], the half-maximal inhibitory concentration (IC50) fell in the range of 10 to 1000 nM.

On to `O=C(OC[C@H]1CCCN1c1ccnc2ncnn12)c1cccc(Br)c1` [Compound A44], for which the concentration for half-maximal inhibition (IC50) was 10 to 1000 nM.

For `O=C(OC[C@H]1CCCN1c1ccnc2ncnn12)c1cccc(I)c1` [Compound A45], the IC50 was 10 to 1000 nM.

As to `O=C(OC[C@H]1CCCN1c1ccnc2ncnn12)c1cc(Cl)nc2ccccc12` [Compound A46], the IC50 lay in the range of 10 to 1000 nM. To `c1ccc2c(OC[C@H]3CCCN3c3ccnc4nsnc34)cccc2c1` [Compound A47] belongs > 10000 nM. `FC(F)(F)c1cccc(COC[C@H]2CCCN2c2ccnc3ncnn23)c1` [Compound A48]: the IC50 was 1000 to 10000 nM.

Take `Ic1cccc(COC[C@H]2CCCN2c2ccnc3ncnn23)c1` [Compound A49]: the IC50 was 1000 to 10000 nM. Regarding `CN(C)c1cccc(C(=O)OC[C@H]2CCCN2c2ccnc3ncnn23)c1` [Compound A50], the IC50 fell in the range of 10 to 1000 nM.

For `COc1cccc(COC[C@H]2CCCN2c2ccnc3ncnn23)c1` [Compound A51], the half-inhibitory concentration (IC50) was in the range of 10 to 1000 nM. To `O=C(OC[C@H]1CCCN1c1ccnc2ncnn12)c1cccc(F)c1` [Compound A52] belongs 10 to 1000 nM; to `NC(=O)CCCC(=O)N1CCc2cccc(OC[C@H]3CCCN3c3ccnc4ncnn34)c2C1` [Compound A53], 10 to 1000 nM. Then `Fc1cccc(COC[C@H]2CCCN2c2ccnc3ncnn23)c1` [Compound A55], with 10 to 1000 nM; and `c1cncc(COC[C@H]2CCCN2c2ccnc3ncnn23)c1` [Compound A56], with 1000 to 10000 nM; and `O=C(O)Cc1ccccc1OC[C@H]1CCCN1c1ccnc2ncnn12` [Compound A57], with > 10000 nM. To `c1cc(COC[C@H]2CCCN2c2ccnc3ncnn23)ccn1` [Compound A58] belongs > 10000 nM; to `COC(=O)c1ccc2[nH]c(COC[C@H]3CCCN3c3ccnc4ncnn34)cc2c1` [Compound A59], 10 to 1000 nM. On to `O=C(OC[C@H]1CCCN1c1ccnc2ncnn12)c1cccc(C(F)(F)F)c1` [Compound A60], for which the 50% inhibitory concentration (IC50) was > 10000 nM. Then `O=C(OC[C@H]1CCCN1c1ccnc2ncnn12)c1ccc(Cl)nc1` [Compound A61], with 10 to 1000 nM; and `O=C(OC[C@H]1CCCN1c1ccnc2ncnn12)c1cccnc1Oc1ccccc1` [Compound A62], with 10 to 1000 nM; and `O=C(OC[C@H]1CCCN1c1ccnc2ncnn12)c1ccc(Oc2ccccc2)nc1` [Compound A64], with 10 to 1000 nM.

For the compound `Clc1cc(COC[C@H]2CCCN2c2ccnc3ncnn23)cc(Cl)n1` [Compound A65], the 50% inhibitory concentration (IC50) was > 10000 nM. As to `Brc1cccc(COC[C@H]2CCCN2c2ccnc3ncnn23)c1` [Compound A66, 7-[(R)-2-(3-Bromobenzyloxymethyl)pyrrolidin-1-yl]-[1,2,4]triazolo[1,5-a]pyrimidine], the IC50 lay in the range of 10 to 1000 nM.

Regarding `FC(F)(F)Oc1cccc(COC[C@H]2CCCN2c2ccnc3ncnn23)c1` [Compound A67, 7-[(R)-2-(3-Trifluoromethoxybenzyloxymethyl)-pyrrolidin-1-yl]-[1,2,4]triazolo[1,5-a]pyrimidine], the concentration for half-maximal inhibition (IC50) is 10 to 1000 nM. Take `O=C(OC[C@H]1CCCN1c1ccnc2ncnn12)c1ccccc1I` [Compound A68, (R)-1-[1,2,4]Triazolo[1,5-a]pyrimidin-7-yl-pyrrolidin-2-ylmethyl 2-iodobenzoate]: the half-inhibitory concentration (IC50) was in the range of 10 to 1000 nM. As to `O=C(OC[C@H]1CCCN1c1ccnc2ncnn12)c1ccccn1` [Compound A69, (R)-1-[1,2,4]Triazolo[1,5-a]pyrimidin-7-yl-pyrrolidin-2-ylmethyl pyridine-2-carboxylate], the IC50 is 10 to 1000 nM.

On to `O=C(OC[C@H]1CCCN1c1ccnc2ncnn12)c1cccnc1` [Compound A70], for which the concentration for half-maximal inhibition (IC50) was 10 to 1000 nM.

Regarding `O=C(OC[C@H]1CCCN1c1ccnc2ncnn12)c1ccccc1` [Compound A71, (R)-1-[1,2,4]Triazolo[1,5-a]pyrimidin-7-yl-pyrrolidin-2-ylmethyl benzoate], the IC50 lay in the range of 10 to 1000 nM.

As to `CCOc1cccc(C(=O)OC[C@H]2CCCN2c2ccnc3ncnn23)c1` [Compound A72, (R)-1-[1,2,4]Triazolo[1,5-a]pyrimidin-7-yl-pyrrolidin-2-ylmethyl 3-ethoxybenzoate], the IC50 was in the range of 10 to 1000 nM. To `O=C(OC[C@H]1CCCN1c1ccnc2ncnn12)c1cc(Cl)ccc1F` [Compound A73, (R)-1-[1,2,4]Triazolo[1,5-a]pyrimidin-7-yl-pyrrolidin-2-ylmethyl 5-chloro-2-fluorobenzoate] belongs 10 to 1000 nM. Turning to `O=C(OC[C@H]1CCCN1c1ccnc2ncnn12)c1cccc(CCl)c1` [Compound A74, (R)-1-[1,2,4]Triazolo[1,5-a]pyrimidin-7-yl-pyrrolidin-2-ylmethyl 3-chloromethylbenzoate], the IC50 was in the range of 10 to 1000 nM.

The values above are taken from US8546406B2, “Heterocyclic compounds as metap-2 inhibitors” (Merck Patent GmbH, priority 2009, dated 2013).
